Source: US20040226502A1, “Crystal structure of 2c-methyl-d-erythritol 2,4-cyclodiphosphate synthase” (priority 2001, published 2004)

How the values were obtained:
[1] = target: T1, 2C-methyl-D-erythritol 2,4-cyclodiphosphate synthase (Escherichia coli, UniProt P62617); assay: Crystal soaking and 3D structure determination of ligand complexes; format: binding, E. coli; details: for affinity for the protein (in words): from crystals/structures subs, sub2 and cyt
T1 construct: His6 (from vector pQE30) (N); made in house; host or cells: E. coli XL1-Blue carrying pQEispF
Description: The following substrate, substrate analoge and product complexes were determined in order to determine binding of these molecules to the synthase:
subop: a crystal soaked with 10 mM 4-diphosphocytidyl-2C-methyl-D-erythritol. The zinc atom the water or hydroxyl-group at the zinc is replaced by an oxygen of the beta-phosphate of the diphosphocytidyl-moiety.
subs: a crystal soaked with 10 mM 4-diphosphocytidyl-2C-methyl-D-erythritol 2-phosphate and 10 mM EDTA, that contains no zinc.
sub2: a crystal soaked with 10 mM 4-diphosphocytidyl-2C-methyl-D-erythritol 2-phosphate, that containes zinc and the products CMP and 2C-methyl-D-erythritol 2,4-cyclodiphosphate.
mgcdp2: a crystal soaked with 2 mM CDP and 5 mM MgCl2
cyt: a crystal soaked with 10 mM cytidine
These structures were determined using the nat2 structure as starting model. Initially a rigid body refinement was carried out followed by positional refinement. Then the substrate, substrate analoge or product molecules were build into the electron density of difference electron density maps, again followed by refinement of atom positions and B-factors.
Crystals containing the synthase and zinc were incubated for one hour with about 5 mM of a ligand in mother liquor containing 2M ammonium formate, 0.1M HEPES/NaOH at pH 7.0 and 20% D-(−)-2,3-butanediole (purchased from FLUKA) as a cryo-protectant. Crystals were mounted in a nylon-loop and flash frozen in a stream of nitrogen at 100Kelvin with an Oxford cryo stream. […] Diffraction data were measured at that temperature without any indication of radiation damage.
In order to obtain a crystal structure of 2C-methyl-D-erythritol 2,4-cyclodiphosphate synthase in complex with CDP, the synthase was crystallized according to example 8. A crystal of suitable size was then soaked in crystallization buffer (see example 8) further containing 5 mM CDP and 5 mM MgCl2.
The starting model for the determination of the structure of the complex was the structure of the synthase without a substrate analoge. […]

[2] = target: T1, 2C-methyl-D-erythritol 2,4-cyclodiphosphate synthase; format: biochemical; details: E. coli enzyme, compound as substrate
Description: Assay mixtures contain 50 mM potassium phosphate, pH 7.0, 2 mM DTT, 2 mM MgCl2, 1 mM 4-diphosphocytidyl-2C-methyl-D-erythritol 2-phosphate and protein in a total volume of 100 μl. The mixtures are incubated at 37° C. for 20 min. The reactions are terminated by adding EDTA at a final concentration of 4 mM. The samples are centrifuged and the supernatant is analyzed by HPLC using a column of Multospher 120 RP 18-AQ-5 (4.6×250 mm, CS-Chromatographic Service Gmbh) that has been equilibrated and run with Gradient No. 3 at a flow rate 1 ml min^−1 (see below). The effluent is monitored photometrically (270 nm).
One unit of 2C-methyl-D-erythritol 2,4-cyclodiphosphate synthase activity is defined as the amount of protein which produced 1 μmol min^−1 of CMP.
Column: Multospher 120 RP 18-5 AQ, 250×4.6 mm, particle size 5 μm (CS: Chromatographic Service GmbH, Langerwehe, Germany)

T1 sequence (P62617 whole entry): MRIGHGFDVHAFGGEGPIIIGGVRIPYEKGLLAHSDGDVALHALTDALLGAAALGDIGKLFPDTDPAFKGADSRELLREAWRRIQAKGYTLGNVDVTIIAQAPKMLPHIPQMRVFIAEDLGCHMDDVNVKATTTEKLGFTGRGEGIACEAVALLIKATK

Nc1ccn([C@@H]2O[C@H](COP(=O)(O)O)[C@@H](O)[C@H]2O)c(=O)n1 [CMP, cytidine monophosphate]
affinity for the protein (in words) [1]: considerable affinity

Nc1ccn([C@@H]2O[C@H](CO)[C@@H](O)[C@H]2O)c(=O)n1 [cytidine]
affinity for the protein (in words) [1]: considerable affinity

C[C@@](CO)(OP(=O)(O)O)[C@H](O)COP(=O)(O)OP(=O)(O)OC[C@H]1O[C@@H](n2ccc(N)nc2=O)[C@H](O)[C@@H]1O [4-diphosphocytidyl-2C-methyl-D-erythritol 2-phosphate]
Km [2]: 37 µM | vmax [2]: 76 µmol/mg/min

Nc1ccn([C@@H]2O[C@H](COP(=O)(O)OP(=O)(O)O)[C@@H](O)[C@H]2O)c(=O)n1 [CDP, cytidine diphosphate]
type of inhibition of the synthase (in words) ([1]; inferred from binding to a portion of the active site in the synthase-CDP complex): competitive inhibitor
